Data as given in ChEMBL document CHEMBL6121047, “Design, Synthesis, and Evaluation of Selective PDE4 Inhibitors for the Therapy of Pulmonary Injury” (J Med Chem, 2025).
Calls of active or inactive are those of the source. The calls are words filed in the database; no cut-off is given here.

What was measured:
BEAS-2B = assay: Anti-inflammatory activity in LPS-induced human BEAS-2B cells assessed as inhibition of TNF-alpha secretion level at 10 uM preincubated with compound for 1 hr followed by LPS addition and measured after 24 hrs by ELISA; assay type: functional, cell-based; conditions: time 25.0 hrs
[1] = Acute toxicity in Sprague-Dawley rat assessed as pathological changes in spleen at 1 g/Kg, po administered via gavage by H and E staining based analysis; assay type: organism-based; conditions: in vivo, 1000 mg/kg
NCI-H292 = assay: Anti-inflammatory activity against EGF-induced human NCI-H292 cells assessed as decrease in MUC5AC mRNA expression by RT-qPCR analysis; assay type: functional, cell-based; conditions: dose 10-50 µM
RAW264.7 [2] = assay: cells; conditions: Mus musculus
[3] = Oral bioavailability in Sprague-Dawley rat at 10 mg/kg measured upto 24 hrs by LC-MS/MS analysis; assay type: ADME, organism-based; conditions: in vivo
[4] = Apparent volume of distribution in Sprague-Dawley rat at 5 mg/kg, iv measured upto 24 hrs by LC-MS/MS analysis; assay type: ADME, organism-based; conditions: in vivo, read-out: Vz
[5] = Acute toxicity in Sprague-Dawley rat assessed as effect on apparent heart coefficient change at 1 g/Kg, po administered via gavage; assay type: organism-based; conditions: in vivo, 1000 mg/kg
Mus musculus [6] = assay: Anti-inflammatory activity against LPS-induced acute lung injury male BALB/c mouse model assessed as reduction in total cell counts in BALF at 8 to 32 mg/kg administered once a day via gavage for 7 days followed by LPS stimulation and measured after 24 hrs; assay type: functional, organism-based; conditions: dose 8-32 mg/kg, time 192.0 hrs
Mus musculus [7] = assay: (§1) Anti-inflammatory activity against LPS-induced acute lung injury male BALB/c mouse model assessed as reduction in TNF-alpha level in BALF at 8 to 32 mg/kg administered once a day via gavage for 7 days followed by LPS stimulation and measured after 24 hrs; assay type: functional, organism-based; conditions: dose 8-32 mg/kg, time 192.0 hrs
[8] = Metabolic stability in mouse liver microsomes assessed as half life incubated for 4 hrs in presence of NADPH by LC-MS analysis; assay type: ADME, Microsome
[9] = Half life in Sprague-Dawley rat at 5 mg/kg, iv measured upto 24 hrs by LC-MS/MS analysis; assay type: ADME, organism-based; conditions: in vivo
[10] = Acute toxicity in Sprague-Dawley rat assessed as increase in body weight at 1 g/Kg, po administered via gavage and measured on day 14; assay type: organism-based; conditions: in vivo, 1000 mg/kg
[11] = Acute toxicity in Sprague-Dawley rat assessed as effect on apparent kidney coefficient change at 1 g/Kg, po administered via gavage; assay type: organism-based; conditions: in vivo, 1000 mg/kg
Mus musculus [12] = assay: Antitussive activity in male BALB/c mouse model assessed as reduction in cough frequency at 32 mg/kg administered every day via gavage for 7 days at 1 hrs post last dose and measured within 3 min; assay type: functional, organism-based; conditions: time 169.05 hrs
[13] = Toxicity in female Beagle dog assessed as emesis at 1 to 3 mg/kg, po administered once via gavage and measured within 24 hrs; assay type: organism-based, Canis lupus familiaris; conditions: in vivo, dose 1-3 mg/kg
[14] = molecular target: T1, 3',5'-cyclic-AMP phosphodiesterase 4B (Homo sapiens, UniProt Q07343); assay: Inhibition of PDE4B (unknown origin) using FAM-cAMP as substrate preincubated with compound for compound for 15 mins followed by substrate addition and measured after 30 mins by Envision multilabel reader analysis
[15] = Acute toxicity in Sprague-Dawley rat assessed as pathological changes in kidney at 1 g/Kg, po administered via gavage by H and E staining based analysis; assay type: organism-based; conditions: in vivo, 1000 mg/kg
Mus musculus [16] = assay: Anti-inflammatory activity against LPS-induced acute lung injury male BALB/c mouse model assessed as reduction in IL-6 level in BALF at 8 to 32 mg/kg administered once a day via gavage for 7 days followed by LPS stimulation and measured after 24 hrs; assay type: functional, organism-based; conditions: dose 8-32 mg/kg, time 192.0 hrs
Mus musculus [17] = assay: as §1, with “restoration of alveolar cavities” for “reduction”, “lung” for “TNF-alpha level in BALF”, “hrs by H and E staining based microscopic analysis” for “hrs”; assay type: functional, organism-based; conditions: dose 8-32 mg/kg, time 192.0 hrs
[18] = Clearance in Sprague-Dawley rat at 5 mg/kg, iv measured upto 24 hrs by LC-MS/MS analysis; assay type: ADME, organism-based; conditions: in vivo
Mus musculus [19] = assay: Anti-inflammatory activity against LPS-induced acute lung injury male BALB/c mouse model assessed as relaxation of alveolar in lung at 8 to 32 mg/kg administered once a day via gavage for 7 days followed by LPS stimulation and measured after 24 hrs by H and E staining based microscopic analysis; assay type: functional, organism-based; conditions: dose 8-32 mg/kg, time 192.0 hrs
[20] = Metabolic stability in rat liver microsomes assessed as half life incubated for 4 hrs in presence of NADPH by LC-MS analysis; assay type: ADME, Microsome
[21] = AUC (0 to infinity) in Sprague-Dawley rat at 5 mg/kg, iv measured upto 24 hrs by LC-MS/MS analysis; assay type: ADME, organism-based; conditions: in vivo
RAW264.7 [22] = assay: Anti-inflammatory activity in LPS-induced mouse RAW264.7 cells assessed as inhibition of IL-6 secretion level at 10 uM preincubated with compound for 1 hr followed by LPS addition and measured after 24 hrs by ELISA; assay type: functional, cell-based; conditions: time 25.0 hrs
Mus musculus [23] = assay: (§2) Anti-inflammatory activity against cigarette-smoke/LPS-induced COPD male C57BL/6 mouse model assessed as reduction in MMP9 level in BALF at 5 mg/kg pretreated with cigarette smoke exposure for 21 weeks with subsequent LPS induction twice on the first and 15th day followed by compound administration every day via gavage for 4 weeks; assay type: functional, organism-based
[24] = Cmax in Sprague-Dawley rat at 10 mg/kg, po measured upto 24 hrs by LC-MS/MS analysis; assay type: ADME, organism-based; conditions: in vivo
[25] = Metabolic stability in monkey liver microsomes assessed as half life incubated for 4 hrs in presence of NADPH by LC-MS analysis; assay type: ADME, Macaca mulatta, Microsome; conditions: rhesus monkey
[26] = molecular target: T1, 3',5'-cyclic-AMP phosphodiesterase 4B; assay: Inhibition of recombinant full length PDE4B (unknown origin) using FAM-cAMP as substrate at 1 uM preincubated with compound for compound for 15 mins followed by substrate addition and measured after 30 mins by Envision multilabel reader analysis relative to control; conditions: time 45.0 min
Mus musculus [27] = assay: Anti-inflammatory activity against cigarette-smoke/LPS-induced COPD male C57BL/6 mouse model assessed as decrease in collagen formation at 5 mg/kg pretreated with cigarette smoke exposure for 21 weeks with subsequent LPS induction twice on the first and 15th day followed by compound administration every day via gavage for 4 weeks by masson staining based microscopic analysis; assay type: functional, organism-based
[28] = Toxicity in female Beagle dog assessed as side effects at 1 to 3 mg/kg, po administered once via gavage and measured within 24 hrs; assay type: organism-based, Canis lupus familiaris; conditions: in vivo, dose 1-3 mg/kg
RAW264.7 [29] = assay: Anti-inflammatory activity in LPS-induced mouse RAW264.7 cells assessed as inhibition of IL-1 beta secretion level at 10 uM preincubated with compound for 1 hr followed by LPS addition and measured after 24 hrs by ELISA; assay type: functional, cell-based; conditions: time 25.0 hrs
Mus musculus [30] = assay: Anti-inflammatory activity against LPS-induced acute lung injury male BALB/c mouse model assessed as reduction in IL-1beta level in BALF at 8 to 32 mg/kg administered once a day via gavage for 7 days followed by LPS stimulation and measured after 24 hrs; assay type: functional, organism-based; conditions: dose 8-32 mg/kg, time 192.0 hrs
[31] = molecular target: Voltage-gated inwardly rectifying potassium channel KCNH2 (Homo sapiens, UniProt Q12809); assay: Inhibition of hERG expressed in HEK293T cells; assay type: toxicity, cell-based
[32] = Acute toxicity in Sprague-Dawley rat assessed as effect on apparent lung coefficient change at 1 g/Kg, po administered via gavage; assay type: organism-based; conditions: in vivo, 1000 mg/kg
Mus musculus [33] = assay: as §2, with “IL-6” for “MMP9”; assay type: functional, organism-based
[34] = Acute toxicity in Sprague-Dawley rat assessed as pathological changes in liver at 1 g/Kg, po administered via gavage by H and E staining based analysis; assay type: organism-based; conditions: in vivo, 1000 mg/kg

T1 sequence (Q07343 whole entry): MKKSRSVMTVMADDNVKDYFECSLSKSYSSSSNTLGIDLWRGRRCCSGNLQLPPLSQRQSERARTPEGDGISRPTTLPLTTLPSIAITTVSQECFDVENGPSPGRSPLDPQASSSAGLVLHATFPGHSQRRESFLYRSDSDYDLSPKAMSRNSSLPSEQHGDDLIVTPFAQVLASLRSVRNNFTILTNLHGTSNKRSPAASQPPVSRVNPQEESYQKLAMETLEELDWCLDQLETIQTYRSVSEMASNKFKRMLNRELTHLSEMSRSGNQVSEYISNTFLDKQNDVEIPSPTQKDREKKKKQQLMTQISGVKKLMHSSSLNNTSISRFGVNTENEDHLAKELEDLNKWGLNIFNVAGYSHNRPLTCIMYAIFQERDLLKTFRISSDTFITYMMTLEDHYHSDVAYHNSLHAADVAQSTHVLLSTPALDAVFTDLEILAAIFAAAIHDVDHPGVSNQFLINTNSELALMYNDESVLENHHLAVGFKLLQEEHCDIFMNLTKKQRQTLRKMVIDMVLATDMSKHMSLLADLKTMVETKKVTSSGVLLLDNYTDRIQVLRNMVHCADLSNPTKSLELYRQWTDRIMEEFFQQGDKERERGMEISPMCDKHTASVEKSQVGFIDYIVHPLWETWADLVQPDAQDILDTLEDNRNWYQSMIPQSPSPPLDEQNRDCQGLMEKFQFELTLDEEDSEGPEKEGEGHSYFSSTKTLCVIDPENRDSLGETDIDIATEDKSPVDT
Sequence of Voltage-gated inwardly rectifying potassium channel KCNH2 (Q12809 whole entry): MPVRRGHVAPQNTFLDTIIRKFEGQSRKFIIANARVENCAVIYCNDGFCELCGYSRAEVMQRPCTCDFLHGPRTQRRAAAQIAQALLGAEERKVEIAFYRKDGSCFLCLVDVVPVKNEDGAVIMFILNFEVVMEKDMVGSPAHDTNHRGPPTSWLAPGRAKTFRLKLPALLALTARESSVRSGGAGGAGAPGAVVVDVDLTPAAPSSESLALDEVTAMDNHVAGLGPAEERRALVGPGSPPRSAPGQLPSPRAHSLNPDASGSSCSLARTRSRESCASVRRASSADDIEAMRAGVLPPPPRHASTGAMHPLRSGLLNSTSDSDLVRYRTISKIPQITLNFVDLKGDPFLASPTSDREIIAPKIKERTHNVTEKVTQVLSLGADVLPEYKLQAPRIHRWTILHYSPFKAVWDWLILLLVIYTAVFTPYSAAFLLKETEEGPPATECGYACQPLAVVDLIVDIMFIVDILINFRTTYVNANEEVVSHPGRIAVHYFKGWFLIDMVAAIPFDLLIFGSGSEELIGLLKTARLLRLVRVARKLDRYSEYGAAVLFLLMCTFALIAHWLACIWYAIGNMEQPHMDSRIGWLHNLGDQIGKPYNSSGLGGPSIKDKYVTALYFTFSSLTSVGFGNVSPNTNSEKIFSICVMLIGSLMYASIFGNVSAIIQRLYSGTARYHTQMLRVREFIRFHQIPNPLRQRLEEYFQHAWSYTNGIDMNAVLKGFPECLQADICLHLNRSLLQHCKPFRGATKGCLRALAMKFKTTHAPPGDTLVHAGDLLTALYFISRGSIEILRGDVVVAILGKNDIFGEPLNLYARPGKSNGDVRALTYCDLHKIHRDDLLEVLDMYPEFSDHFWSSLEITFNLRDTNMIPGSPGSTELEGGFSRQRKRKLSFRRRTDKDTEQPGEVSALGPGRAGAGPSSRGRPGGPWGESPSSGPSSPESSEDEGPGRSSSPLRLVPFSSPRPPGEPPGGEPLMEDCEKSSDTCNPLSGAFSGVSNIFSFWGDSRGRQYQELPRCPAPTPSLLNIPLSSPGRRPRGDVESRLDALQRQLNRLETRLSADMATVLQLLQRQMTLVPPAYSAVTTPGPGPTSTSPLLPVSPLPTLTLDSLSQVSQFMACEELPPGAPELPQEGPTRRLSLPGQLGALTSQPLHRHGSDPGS

Question: For O=C(Nc1nccs1)c1cccc2[nH]c(-c3ccc(OC(F)F)c(OCC4CC4)c3)nc12, which Activity (BEAS-2B) is on record?
Answer: Active

Question: What about the Activity [1] of the same compound?
Answer: Non-toxic

Question: What about the Activity (NCI-H292) of the same compound?
Answer: Dose-dependent-effect

Question: What about the IC50 (RAW264.7 [2]) of the same compound?
Answer: 29.5 µM

Question: And the bioavailability [3]?
Answer: 4.59%

Question: And the Vd [4]?
Answer: 0.606 L/kg

Question: And the Activity [5]?
Answer: Non-toxic

Question: And the Activity (Mus musculus [6])?
Answer: Active

Question: What about the Activity (Mus musculus [7]) of the same compound?
Answer: Active

Question: What about the half-life [8] of the same compound?
Answer: 40.2 min

Question: And the half-life [9]?
Answer: 118 min

Question: What about the Activity [10] of the same compound?
Answer: Non-toxic

Question: What about the Activity [11] of the same compound?
Answer: Non-toxic

Question: What about the Activity (Mus musculus [12]) of the same compound?
Answer: Active

Question: And the Activity [13]?
Answer: Non-toxic

Question: What about the IC50 [14] of the same compound?
Answer: 0.0488 µM

Question: And the Activity [15]?
Answer: Non-toxic

Question: What about the Activity (Mus musculus [16]) of the same compound?
Answer: Active

Question: What about the Activity (Mus musculus [17]) of the same compound?
Answer: Active

Question: What about the clearance [18] of the same compound?
Answer: 3.62 mL/min/kg

Question: And the Activity (Mus musculus [19])?
Answer: Active

Question: What about the half-life [20] of the same compound?
Answer: 61.8 min

Question: What about the AUC(0-inf) [21] of the same compound?
Answer: 23200 ng·h/mL

Question: And the Activity (RAW264.7 [22])?
Answer: Active

Question: What about the Activity (Mus musculus [23]) of the same compound?
Answer: Active

Question: And the Cmax [24]?
Answer: 219 ng/mL

Question: What about the half-life [25] of the same compound?
Answer: 44.2 min

Question: What about the inhibition [26] of the same compound?
Answer: 89.9%

Question: What about the Activity (Mus musculus [27]) of the same compound?
Answer: Active

Question: What about the Activity [28] of the same compound?
Answer: Non-toxic

Question: What about the Activity (RAW264.7 [29]) of the same compound?
Answer: Active

Question: And the Activity (Mus musculus [30])?
Answer: Active

Question: And the IC50 [31]?
Answer: > 30 µM

Question: And the Activity [32]?
Answer: Non-toxic

Question: And the Activity (Mus musculus [33])?
Answer: Active

Question: And the Activity [34]?
Answer: Non-toxic
